Data: patent US20110065916A1, “METHOD OF MAKING IMIDAZOAZEPINONE COMPOUNDS” (priority 2007, published 2011)

The compounds below were run on human T-bet (assay: HEKT-bet-luc assay (normalized HEKT-bet IC50)). Conditions: Homo sapiens, HEK293, 24 h, Table 2, engineered HEK cells, compound 24 hours, normalized to reference ER-819544.
Format: cell-based
Experimental: HEKT-bet-luc assay: This assay measures a T-bet dependent reporter (luciferase) activity in engineered HEK cells that express a human T-bet and a T-box responsive element driving luciferase reporter. HEKT-bet cells were plated at 2×10^4/well in 96-well plate and compound was added into cell culture for 24 hours. Luciferase activity was measured by adding 50 μl of Steady-Glo reagent (Promega) and samples were read in Victor V reader (PerkinElmer). The activity of compound was determined by comparing compound treated samples to non-compound treated vehicle controls. The IC50 values were calculated utilizing a maximum value corresponding to the amount of luciferase in the absence of a test compound and a minimum value corresponding to a test compound value obtained at maximum inhibition.
Determination of Normalized HEKT-bet IC50 values: Compounds were assayed in microtiter plates. Each plate included a reference compound which was ER-819544. The un-normalized IC50 value for a particular compound was divided by the IC50 value determined for the reference compound in the same microtiter plate to provide a relative potency value. The relative potency value was then multiplied by the established potency of the reference compound to provide the normalized HEKT-bet IC50 value. […] The IC50 values provided herein were obtained using this normalization method.
`COc1cc2c(c(OC)c1)C(C)(C)C=C1N(C2)C(=O)NC12CCN(Cc1ccccc1)CC2` [compound 819667] showed an IC50 of 250 nM.

Same assay, conditions: Homo sapiens, HEK293, 24 h, Table 4, engineered HEK cells, compound 24 hours, normalized to reference ER-819544
`CCN1C(=O)N2Cc3cc(OC)cc(OC)c3[C@H](C)C=C2C12CCN(Cc1cc(C)ccc1F)CC2` [ER-819947] showed an IC50 of 2600 nM. In the case of `CCN1C(=O)N2Cc3cc(OC)cc(OC)c3[C@H](C)C=C2C12CCN(Cc1ccc(F)c(OC)c1)CC2` [ER-819948], the IC50 is reported as > 10000 nM. `CCN1C(=O)N2Cc3cc(OC)cc(OC)c3[C@@H](C)C=C2C12CCN(Cc1cccc3nccnc13)CC2` [ER-819953-01] was tested, and the IC50 was 26 nM. `CCN1C(=O)N2Cc3cc(OC)cc(OC)c3[C@@H](C)C=C2C12CCN(Cc1cccc3ncccc13)CC2` [ER-819954-01] showed an IC50 of 47 nM. Work on `CCN1C(=O)N2Cc3cc(OC)cc(OC)c3[C@@H](C)C=C2C12CCN(Cc1cccc3cccnc13)CC2` [ER-819955-01] yielded an IC50 of 20 nM. Compound `CCN1C(=O)N2Cc3cc(OC)cc(OC)c3[C@@H](C)C=C2C12CCN(Cc1ccnn1C)CC2` [ER-819958-01] has an IC50 of 79 nM. Compound `CCN1C(=O)N2Cc3cc(OC)cc(OC)c3[C@@H](C)C=C2C12CCN(Cc1ccn(C)c1)CC2` [ER-819961-01] has an IC50 of 96 nM. `CCN1C(=O)N2Cc3cc(OC)cc(OC)c3[C@@H](C)C=C2C12CCN(Cc1nc3ccccc3[nH]1)CC2` [ER-819965-01] gave an IC50 of 130 nM. `CCN1C(=O)N2Cc3cc(OC)cc(OC)c3[C@@H](C)C=C2C12CCN(Cc1ccc3[nH]ccc3c1)CC2` [ER-819966-01] gave an IC50 of 48 nM. For `CCN1C(=O)N2Cc3cc(OC)cc(OC)c3[C@@H](C)C=C2C12CCN(Cc1cn(C)nc1C)CC2` [ER-819971-01], the IC50 was 34 nM. Compound `CCN1C(=O)N2Cc3cc(OC)cc(OC)c3[C@@H](C)C=C2C12CCN(Cc1cc(C)nn1C)CC2` [ER-819973-01] has an IC50 of 30 nM. With `CCN1C(=O)N2Cc3cc(OC)cc(OC)c3[C@@H](C)C=C2C12CCN(Cc1cnn(C)c1C)CC2` [ER-819976-01] the IC50 was 23 nM. With `CCN1C(=O)N2Cc3cc(OC)cc(OC)c3[C@@H](C)C=C2C12CCN(Cc1cccn1-c1cccnc1)CC2` [ER-819979-01] the IC50 was 120 nM. `CCN1C(=O)N2Cc3cc(OC)cc(OC)c3[C@@H](C)C=C2C12CCN(Cc1nc3ccccc3o1)CC2` [ER-819981-01] was tested, and the IC50 was 200 nM. `CCN1C(=O)N2Cc3cc(OC)cc(OC)c3[C@@H](C)C=C2C12CCN(Cc1nccc(-c3ccccc3)n1)CC2` [ER-819985-01] was tested, and the IC50 was 130 nM. Work on `CCN1C(=O)N2Cc3cc(OC)cc(OC)c3[C@@H](C)C=C2C12CCN(Cc1nc(OC)cc(OC)n1)CC2` [ER-820004-01] yielded an IC50 of 67 nM. With `CCN1C(=O)N2Cc3cc(OC)cc(OC)c3[C@@H](C)C=C2C12CCN(Cc1cccn1CCC#N)CC2` [ER-820008-00] the IC50 was 240 nM. `CCN1C(=O)N2Cc3cc(OC)cc(OC)c3[C@@H](C)C=C2C12CCN(Cc1nccn1OCc1ccccc1)CC2` [ER-820009-00] showed an IC50 of 110 nM. With `CCN1C(=O)N2Cc3cc(OC)cc(OC)c3[C@@H](C)C=C2C12CCN(Cc1cccn1-c1cc(C)on1)CC2` [ER-820017-01] the IC50 was 69 nM. In the case of `CCN1C(=O)N2Cc3cc(OC)cc(OC)c3[C@@H](C)C=C2C12CCN(Cc1cccn1-c1cnccn1)CC2` [ER-820020-02], the IC50 is reported as 180 nM. Compound `CCN1C(=O)N2Cc3cc(OC)cc(OC)c3[C@@H](C)C=C2C12CCN(Cc1cc(OC)c(F)c(OC)c1)CC2` [ER-824214-00] has an IC50 of 29 nM.

Same assay, conditions: Table 4, engineered HEK cells, compound 24 hours, normalized to reference ER-819544
`CCN1C(=O)N2Cc3cc(OC)cc(OC)c3[C@@H](C)C=C2C12CCN(Cc1nccn1C)CC2` [ER-819957-01] showed an IC50 of 55 nM.
